Reference: paper PMC3884022 (Journal of Hematology & Oncology, 2014)
Where two headings read alike, the source gives them in different places.

Legend:
2D6 = 2D6 (Homo sapiens, UniProt P10635); assay: CYP2D6 inhibition; format: in vitro ADME
2C9 = 2C9 (Homo sapiens, UniProt P11712); assay: CYP2C9 inhibition; format: in vitro ADME
AKT2 = system: AKT2; set-up: method as in earlier work; conditions: cited from earlier work
AKT1 = system: AKT1; set-up: method as in earlier work; conditions: cited from earlier work
CYP3A = assay: Metabolism in human microsomes; format: in vitro ADME
AKT3 = system: AKT3; set-up: method as in earlier work; conditions: cited from earlier work
[1] = system: NCI-H292 and A2780 tumor cells; conditions: with carboplatin and docetaxel; cited from earlier work
[2] = Phase 1 combination study: MK-2206 pharmacokinetics; format: in vivo, human; conditions: for Tmax / half-life: first dose; for Tmax: read-out: T max, median (range); for half-life: read-out: t 1/2, harmonic mean ± pseudo SD (converted)
Experimental: For the Q3W schedule, samples were taken in cycle 1 on days 1 to 3 as per the QOD schedule, then on days 5, 7, 15, and in cycle 2 on day 1. Blood samples were collected predose and just before the end of the infusion for carboplatin, paclitaxel, and docetaxel for archival and possible PK analysis. Another sample was taken 30 minutes into the infusion of paclitaxel. These samples were archived for possible future analysis to investigate if any unexpected toxicities may have been as a result of a PK interaction. Docetaxel PK samples were analyzed in view of the DLT of febrile neutropenia observed in arm 2; however, PK parameters, such as half-life (t1/2) or systemic exposure of paclitaxel, docetaxel, carboplatin, and erlotinib, could not be evaluated due to the sparse blood sampling design used in this study.
For QW dosing, samples were taken in cycle 1 on day 1 (predose, 2, 4, 6, 10, and 24 hours postdose), day 3 (48 hours postdose), and day 5 (96 hours postdose), then on days 8 and 15 (predose). This sampling schedule was repeated in cycle 2, except for the day 15 predose sample, which was omitted. For the QOD schedule, PK sampling for erlotinib was performed in cycle 1 on day 1 (predose, 2 and 4 hours postdose) and day 21 (2 and 4 hours postdose); for the QW schedule, sampling was performed in cycle 1 on day 1 (predose, 2 and 4 hours postdose) and in cycle 2 on day 1 (2 and 4 hours postdose). […] Blood samples were not analyzed for erlotinib concentrations as the potential for a marked drug-drug interaction with erlotinib as a victim was considered to be low as erlotinib is metabolized by both CYP3A and CYP1A.

[3] = system: patients with advanced solid tumors
Experimental: The dose-escalation phase in all schedules followed a toxicity probability interval approach, where the aim was to target a dose with a DLT rate of 30% [20].
For all treatment schedules, safety assessments were conducted at baseline and on days 1, 2, 3, 7, 15, and 21 of cycle 1, and weekly in cycles 2 to 6. From cycle 7 onwards, safety assessments were performed on day 1 of each cycle. […] In addition to glucose monitoring, serum c-peptide and whole blood HbA1c were measured at baseline and monthly. Adverse events (AEs) and laboratory variables were assessed using the National Cancer Institute Common Terminology Criteria for Adverse Events (NCI-CTCAE) version 3.0 ^1.

[4] = system: mouse NCI-H292 tumor xenografts; conditions: 3 times per week and QW schedule of MK-2206; cited from earlier work
advanced solid tumors = assay: Phase 1 combination study: tumor response (RECIST); format: in vivo, human
Experimental: Circulating nucleic acids were analyzed for PIK3CA (exons 9 and 20), KRAS (exons 2 and 3), and BRAF (exons 11 and 15) mutations. DNA extracted from whole blood samples was subjected to real-time quantitative polymerase chain reaction and spectrophotometric analysis as part of the quality control process, as previously described. Mutation screening was performed using Surveyor Nuclease (Transgenomic, Inc., Nebraska, USA). Radiologic assessment (computed tomography [CT] and/or magnetic resonance imaging [MRI] scans) of disease status was performed at baseline and every 6 weeks according to Response Evaluation Criteria in Solid Tumors (v1.0).

[5] = system: PC-3 prostate and NCI-H462 tumor xenografts; conditions: with docetaxel, carboplatin, and gemcitabine; cited from earlier work
[6] = human, plasma, oral, arm 1 carboplatin AUC 6 + paclitaxel 200 mg/m^2, MK-2206 90 mg Q3W, 5 patients
[7] = human, plasma, oral, arm 1 carboplatin AUC 6 + paclitaxel 200 mg/m^2, MK-2206 200 mg Q3W, 5 patients
[8] = human, plasma, oral, arm 2 docetaxel 60 mg/m^2, MK-2206 90 mg Q3W, 3 patients
[9] = human, plasma, oral, arm 2 docetaxel 60 mg/m^2, MK-2206 200 mg Q3W, 4 patients
[10] = human, plasma, oral, arm 3 erlotinib 100 mg, MK-2206 135 mg QW, 6 patients
[11] = human, plasma, oral, arm 3 erlotinib 150 mg QD, MK-2206 135 mg QW, 6 patients

Chain of 2D6 (P10635 whole entry): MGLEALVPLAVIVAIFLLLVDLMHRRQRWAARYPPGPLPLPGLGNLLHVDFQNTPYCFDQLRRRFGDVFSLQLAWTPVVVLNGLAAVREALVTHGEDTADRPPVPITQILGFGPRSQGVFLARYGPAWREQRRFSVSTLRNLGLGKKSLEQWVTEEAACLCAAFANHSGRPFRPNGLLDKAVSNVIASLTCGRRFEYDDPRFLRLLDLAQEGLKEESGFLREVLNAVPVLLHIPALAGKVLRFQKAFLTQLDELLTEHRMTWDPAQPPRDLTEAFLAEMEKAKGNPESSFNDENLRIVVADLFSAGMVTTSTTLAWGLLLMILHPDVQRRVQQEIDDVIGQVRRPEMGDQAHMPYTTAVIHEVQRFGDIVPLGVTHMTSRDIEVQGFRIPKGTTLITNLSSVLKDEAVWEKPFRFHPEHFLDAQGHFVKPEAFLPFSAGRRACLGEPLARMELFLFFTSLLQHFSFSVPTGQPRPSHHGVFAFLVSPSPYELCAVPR
Chain of 2C9 (P11712 whole entry): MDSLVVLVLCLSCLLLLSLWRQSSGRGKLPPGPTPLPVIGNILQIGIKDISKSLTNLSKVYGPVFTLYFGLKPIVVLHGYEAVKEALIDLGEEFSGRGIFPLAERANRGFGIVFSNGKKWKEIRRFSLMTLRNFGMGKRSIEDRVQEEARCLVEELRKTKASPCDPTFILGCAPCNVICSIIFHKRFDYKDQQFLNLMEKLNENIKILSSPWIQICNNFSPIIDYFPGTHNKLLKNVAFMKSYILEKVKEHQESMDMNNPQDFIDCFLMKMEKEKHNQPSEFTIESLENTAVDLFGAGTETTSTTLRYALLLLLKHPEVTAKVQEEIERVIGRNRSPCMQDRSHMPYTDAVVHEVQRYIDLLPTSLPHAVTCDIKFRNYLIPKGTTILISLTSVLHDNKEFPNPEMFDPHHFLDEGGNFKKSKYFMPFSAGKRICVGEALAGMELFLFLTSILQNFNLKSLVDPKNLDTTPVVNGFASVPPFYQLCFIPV

SMILES: NC1(c2ccc(-c3nc4ccn5c(=O)[nH]nc5c4cc3-c3ccccc3)cc2)CCC1 [MK-2206]
- IC50 (2D6): > 35000 nM
- IC50 (2C9): > 35000 nM
- IC50 (AKT2): 12 nM
- metabolism to oxidative metabolites (CYP3A): mediated primarily by CYP3A
- IC50 (AKT3): 65 nM
- inhibition of tumor cell growth in combination [1]: synergy
- mean Ctrough ([2]; 45-mg dose level in all schedules): > 56.8 nM
- mean 48-hr plasma concentration ([2]; 60-mg QOD (arm 1), last PK sampling time): above 56.8 nM
- AUC, Cmax and Tmax following the first MK-2206 dose ([2]; all treatment arms, compared with single-agent phase 1 study (ref 18)): within ranges observed at the corresponding dose levels in the single-agent phase 1 study
- apparent t1/2 in combination with carboplatin and erlotinib ([2]; compared with monotherapy): consistent with that observed with monotherapy
- Tmax ([2]; human, plasma, oral, arm 1 carboplatin AUC 6 + paclitaxel 200 mg/m^2, MK-2206 45 mg QOD, 6 patients): 4 h
- Tmax ([2]; human, plasma, oral, arm 1 carboplatin AUC 6 + paclitaxel 200 mg/m^2, MK-2206 60 mg QOD, 8 patients): 8 h
- Tmax [2, 6]: 6 h
- half-life [2, 6]: 79.5 ± 17.3 h
- half-life ([2]; human, plasma, oral, arm 1 carboplatin AUC 6 + paclitaxel 200 mg/m^2, MK-2206 135 mg Q3W, 6 patients): 73 ± 20 h
- Tmax [2, 7]: 4 h
- half-life [2, 7]: 74.7 ± 13.4 h
- Tmax [2, 8]: 4 h
- half-life [2, 8]: 105 ± 15 h
- half-life ([2]; human, plasma, oral, arm 2 docetaxel 60 mg/m^2, MK-2206 135 mg Q3W, 3 patients): 106 ± 32.7 h
- Tmax [2, 9]: 6 h
- half-life [2, 9]: 86.9 ± 11.5 h
- Tmax ([2]; human, plasma, oral, arm 2 docetaxel 75 mg/m^2, MK-2206 45 mg QOD, 5 patients): 6 h
- Tmax ([2]; human, plasma, oral, arm 3 erlotinib 100 mg, MK-2206 45 mg QOD, 9 patients): 6 h
- Tmax [2, 10]: 6 h
- half-life [2, 10]: 60.6 ± 6.6 h
- Tmax ([2]; human, plasma, oral, arm 3 erlotinib 150 mg QD, MK-2206 45 mg QOD, 4 patients): 7 h
- Tmax [2, 11]: 4 h
- half-life [2, 11]: 50.2 ± 10.3 h
- concentration at 48 h ([2]; human, plasma, oral, 45-mg QOD (arm 3), last PK sampling time): > 56.8 nM
- vomiting, frequency of AE ([3]; all arms and schedules (N = 72)): 36%
- rash, frequency ([3]; arm 1, Q3W schedule): 25%
- MTD of MK-2206 ([3]; arm 1, Q3W, with carboplatin AUC 6 and paclitaxel 200 mg/m^2): 135 mg
- MTD of MK-2206 ([3]; arm 1, QOD days 1, 3, 5, 7, PO, with carboplatin AUC 6 and paclitaxel 200 mg/m^2): 45 mg
- MTD of MK-2206 ([3]; arm 2, Q3W, with docetaxel): not reached
- MAD of MK-2206 ([3]; arm 2, Q3W, with docetaxel 60 mg/m^2): 200 mg
- DLT rate ([3]; arm 3, MK-2206 135 mg QW with erlotinib): 17%
- MTD of MK-2206 ([3]; arm 3, QW, with erlotinib): not reached
- Alopecia Grade 4 ([3]; human, in vivo): 0 n (%)
- Decreased appetite Grade 4 ([3]; human, in vivo): 0 n (%)
- Diarrhea Grade 4 ([3]; human, in vivo): 0 n (%)
- Fatigue Grade 4 ([3]; human, in vivo): 0 n (%)
- Nausea Grade 4 ([3]; human, in vivo): 0 n (%)
- Pruritus Grade 4 ([3]; human, in vivo): 0 n (%)
- Rash Grade 4 ([3]; human, in vivo): 0 n (%)
- Stomatitis Grade 4 ([3]; human, in vivo): 0 n (%)
- Vomiting Grade 4 ([3]; human, in vivo): 0 n (%)
- alopecia, frequency of AE ([3]; human, in vivo): 40%
- anorexia, frequency of AE ([3]; human, in vivo): 44%
- diarrhea, frequency of AE ([3]; human, in vivo): 44%
- fatigue, frequency of AE ([3]; human, in vivo): 68%
- hyperglycemia, frequency of AE ([3]; human, in vivo): 25%
- nausea, frequency of AE ([3]; human, in vivo): 49%
- rash, frequency ([3]; human, in vivo): 40%
- rash, frequency of AE ([3]; human, in vivo): 47%
- rate of febrile neutropenia ([3]; human, in vivo): 60%
- stomatitis, frequency of AE ([3]; human, in vivo): 32%
- time to full reversal of rash after dose interruption and appropriate treatment ([3]; human, in vivo): 7 to 14 days
- Dose-limiting toxicities ([3]; human, in vivo, 21 days): 0
- tumor growth suppression in combination with erlotinib [4]: significantly greater in vivo tumor growth suppression and tumor regressions over each single agent
- confirmed partial responses, patients (advanced solid tumors; arm 1, QOD and Q3W schedules, melanoma, neuroendocrine prostate, endometrial, cervical): 4
- unconfirmed PRs, patients (advanced solid tumors; arm 1, SCC of the head and neck, and gastric): 2 patients
- complete response, patients (advanced solid tumors; arm 1 carboplatin and paclitaxel, squamous cell carcinoma (SCC) of the orbit, 24 evaluable): 1 patient
- confirmed PR, patients (advanced solid tumors; arm 2, Q3W MK-2206 and docetaxel, NSCLC): One
- objective responses (advanced solid tumors; arm 3 erlotinib): No objective responses
- patients with SD lasting at least 6 months (advanced solid tumors; in vivo): Six
- inhibition of xenograft growth in combination [5]: synergised
